≈ marks a conversion by molar mass, not a printed value. Where two headings read alike, the source gives them in different places.
Tests used:
B-16 melanoma = assay: Anti-tumor action to B-16 melanoma; format: in vivo, BDF1 female mice; details: Mus musculus, B16, 504 h, oral, tumor weight at 21st day, read-out: B-16 melanoma Inhibition ratio
Description: B-16 melanoma (1×10^5 cells) was transplanted under skin of BDF1 female mice (age of about 5 weeks), and each of testing compounds was orally dosed at 1st, 5th and 9th day after the transplantation. At 21st day after the transplantation, the mice were killed to measure a weight of the cancerous tumor and to finally determine an inhibition ratio.

L-1210 leukemia = assay: Anti-tumor action to L-1210 leukemia; format: in vivo, BDF1 female mice; details: Mus musculus, L1210, oral; for ILS at 250 mg/kg/day: 250 mg/kg/day × 3 (1st, 5th, 9th day); for ILS at 500 mg/kg/day: 500 mg/kg/day × 3 (1st, 5th, 9th day)
Description: L-1210 leukemia cell (1×10^5 cells) was transplanted in a abdominal cavity of BDF1 female mice (20-21 g, age of about 5 weeks), and each of testing compounds was orally dosed in 250 mg/kg or 500 mg/kg at 1st, 5th and 9th day after the transplantation to check days of life of the mice. [formula]

KB cells = assay: Suppression of KB cell proliferation in vitro; format: cell-based; details: Homo sapiens, 72 h, 3 days exposure, Trypan Blue dye-exclusion, read-out: KB IC50 (50% inhibition density to tumor cell proliferation)
Description: In a cultivation device (5% CO2, 37° C.), KB cells (1×10^4 cells) were cultivated for 24 hours in a culture tube with 1 ml of Eagle culture medium added 10% ox serum, the used culture medium was thrown away to change with a fresh culture medium (0.9 ml), and then 0.1 ml of a similar culture fluid containing each testing compound prepared by the process as described in the Examples was added to cultivate the same for further 3 days. Thereafter, living cells were dyed with Tripan Blue and measured same through a dye-exclusion method.
A control was treated in a manner similar to the above, except that a culture fluid containing no compound of the invention was added.
50% inhibition density (IC50) to the tumor cell proliferation was decided through the tests between the testing group and the control group to obtain results as shown in following Table 1.

Colon-38 carcinoma = assay: Anti-tumor action to Colon-38 carcinoma; format: in vivo, BDF1 mice; details: Mus musculus, 672 h, oral, tumor weight at 28th day, read-out: colon-38 Inhibition ratio
Description: 0.02 ml of 10(W/V)% cell suspension prepared from a solid cancer cell (Colon-38 carcinoma) were transplanted under skin of BDF1 mice (20-21 g, age of about 5 weeks), and each of testing compounds was orally dosed to the mice at 1st, 5th and 9th day after the transplantation. A major and minor axes of the cancerous tumor were measured at 11th, 14th, 21st, 25th and 28th day after the transplantation to calcurate volume of the tumor in accordance with the following.
At 28th day from the transplantation, the mice were killed and each of the cancerous tumors was extracted to measure its weight and to determine an inhibitation ratio in comparison with a non-treated control group.

Lewis lung carcinoma = assay: Anti-tumor action to Lewis lung carcinoma (primary tumor weight and metastasis); format: in vivo, BDF1 mice; details: Mus musculus, po, 504 h
Description: Lewis lung carcinoma (1×10^5 cells) was transplanted under skin of right ear of BDF1 mice (age of about 5 weeks), and each of testing compounds was orally dosed 10 times from 1st to 10th day after the transplantation. At 21st day after the transplantation, the mice were killed to measure a weight of the primarly tumor and to extract a lung. The lung was fixed in a conventional manner to count a number of metastasis on cancerous cells with use of a stereomicroscope having a low magnification. An anti-tumor action of each compound was expressed with an inhibition in weight of the primarly tumor and an inhibition of the metastasis.

MM-46 adenocarcinoma = assay: Anti-tumor action to MM-46 adenocarcinoma; format: in vivo, C3H/He female mice; details: oral, 250 mg/kg/day × 3 (1st, 5th, 9th day); days to death, testing vs control group
Description: MM-46 adenocarcinoma (1×10^6 cells) was transplanted under skin of C3H/He female mice (age of about 5 weeks), and each of testing compounds was orally dosed at 1st, 5th and 9th day after the transplantation to check days of life on the mice.
T: days to death on testing group, and
C: days to death on control group.

Acute toxicity = format: in vivo, CrJ/CDI female mice; details: mouse, in vivo; oral gavage, suspended in 0.1% P-1570, female mice, 21 days observation
Description: (§1) Each of testing compounds suspended in 0.1% P-1570 was orally and forcedly dosed through a gastric probe to CrJ/CDI female mice (21 to 22 g, age of about 5 weeks). An identification number was given to each mouse, and a weighing and observation on general behavior were carried out just before the dosage and each day after the same. Each of died mice was subjected without delay to an autopsy to check the same, more particularly in detail on enterona. All of living mice were killed at 21st day from the dosage to carry out an autopsy for checking the same, more particularly on entrails.
(§2) An LD50 was calculated in accordance with the Leed and Munch's method.
(§3) A similar test was carried out on each controls of 1-[2-[(2-trimethylsilylethyl)thio]ethylcarbamoyl]-5-fluorouracil and 1-hexylcarbamoyl-5-fluorouracil (HCFU) which is one of exemplary anti-tumor agents.

CrJ/CDI female mice = assay: Acute toxicity; format: in vivo; details: oral gavage
Description: as §1, §2, §3

## C[Si](C)(CCSCCNC(=O)n1cc(F)c(=O)[nH]c1=O)c1ccccc1 [Example 3, N-[2-[[2-(Dimethylphenylsilyl)ethyl]thio]ethyl]-5-fluoro-3,4-dihydro-2,4-dioxo-1(2H)-pyrimidinecarboxamide]
B-16 melanoma; 300 mg/kg/day × 3
  inhibition in vivo at 300 mg/kg/day: 62%
L-1210 leukemia; read-out: L-1210 ILS
  ILS at 250 mg/kg/day: 38%
  ILS at 500 mg/kg/day: 82%
L-1210 leukemia; read-out: L-1210 Judgement
  ILS at 250 mg/kg/day: 25 to 50%
  ILS at 500 mg/kg/day: 50 to 100%
KB cells
  IC50: 12 µg/mL (≈ 30.3 µM)
Colon-38 carcinoma; 315 mg/kg/day × 3
  inhibition in vivo at 315 mg/kg/day: 82.1%
Lewis lung carcinoma; 29.5 mg/kg/day × 10, 21st day, read-out: Inhibition Ratio weight LLC
  inhibition in vivo at 29.5 mg/kg/day: 20.7%
Lewis lung carcinoma; 29.5 mg/kg/day × 10, lung, 21st day, read-out: Inhibition Ratio metastasis
  inhibition in vivo at 29.5 mg/kg/day: 57.5%
Lewis lung carcinoma; 59 mg/kg/day × 10, 21st day, read-out: Inhibition Ratio weight LLC
  inhibition in vivo at 59 mg/kg/day: 0%
Lewis lung carcinoma; 59 mg/kg/day × 10, lung, 21st day, read-out: Inhibition Ratio metastasis
  inhibition in vivo at 59 mg/kg/day: 95.1%
MM-46 adenocarcinoma
  MM-46 adenocarcinoma T/C × 100: 205%
Acute toxicity
  LD50 at 504 h: 1500 mg/kg

## C[Si](C)(C)CCSCCNC(=O)n1cc(F)c(=O)[nH]c1=O [1-[2-[(2-trimethylsilylethyl)thio]ethylcarbamoyl]-5-fluorouracil, reference compound]
CrJ/CDI female mice; female mice
  autopsy findings (ulcer and laxative feces): an ulcer and laxative feces
  spasm (general behavior): a spasm was observed in some mice
Acute toxicity
  LD50 at 504 h: 1100 mg/kg

## CCCCCCNC(=O)n1cc(F)c(=O)[nH]c1=O [HCFU, 1-hexylcarbamoyl-5-fluorouracil, reference compound]
CrJ/CDI female mice; suspended in 0.1% P-1570, female mice, 21 days observation
  LD50: 1250 mg/kg

## C[Si](C)(C)CCCSCCNC(=O)n1cc(F)c(=O)[nH]c1=O [Example 1, 5-Fluoro-3,4-dihydro-2,4-dioxo-N-[2-[[3-(trimethylsilyl)propyl]thio]ethyl]-1(2H)-pyrimidinecarboxamide]
B-16 melanoma; 125 mg/kg/day × 3
  inhibition in vivo at 125 mg/kg/day: 25.8%
B-16 melanoma; 250 mg/kg/day × 3
  inhibition in vivo at 250 mg/kg/day: 73.8%
L-1210 leukemia; read-out: L-1210 ILS
  ILS at 250 mg/kg/day: 28%
  ILS at 500 mg/kg/day: 98%
L-1210 leukemia; read-out: L-1210 Judgement
  ILS at 250 mg/kg/day: 25 to 50%
  ILS at 500 mg/kg/day: 50 to 100%
KB cells
  IC50: 20 µg/mL (≈ 57.6 µM)
Colon-38 carcinoma; 278 mg/kg/day × 3
  inhibition in vivo at 278 mg/kg/day: 95.2%
Lewis lung carcinoma; 13 mg/kg/day × 10 + Amputation, 21st day, read-out: Inhibition Ratio weight LLC
  inhibition in vivo at 13 mg/kg/day: 33.2%
Lewis lung carcinoma; 13 mg/kg/day × 10 + Amputation, lung, 21st day, printed in parentheses, read-out: Inhibition Ratio metastasis
  inhibition in vivo at 13 mg/kg/day: 26.6%
Lewis lung carcinoma; 13 mg/kg/day × 10, 21st day, read-out: Inhibition Ratio weight LLC
  inhibition in vivo at 13 mg/kg/day: 0%
Lewis lung carcinoma; 13 mg/kg/day × 10, lung, 21st day, read-out: Inhibition Ratio metastasis
  inhibition in vivo at 13 mg/kg/day: 50.9%
Lewis lung carcinoma; 26 mg/kg/day × 10 + Amputation, 21st day, read-out: Inhibition Ratio weight LLC
  inhibition in vivo at 26 mg/kg/day: 59.8%
Lewis lung carcinoma; 26 mg/kg/day × 10 + Amputation, lung, 21st day, printed in parentheses, read-out: Inhibition Ratio metastasis
  inhibition in vivo at 26 mg/kg/day: > 63%
Lewis lung carcinoma; 26 mg/kg/day × 10, 21st day, read-out: Inhibition Ratio weight LLC
  inhibition in vivo at 26 mg/kg/day: 51.1%
Lewis lung carcinoma; 26 mg/kg/day × 10, lung, 21st day, read-out: Inhibition Ratio metastasis
  inhibition in vivo at 26 mg/kg/day: 79.2%
Lewis lung carcinoma; 52 mg/kg/day × 10, 21st day, read-out: Inhibition Ratio weight LLC
  inhibition in vivo at 52 mg/kg/day: 31.1%
Lewis lung carcinoma; 52 mg/kg/day × 10, lung, 21st day, read-out: Inhibition Ratio metastasis
  inhibition in vivo at 52 mg/kg/day: 95.7%
MM-46 adenocarcinoma
  MM-46 adenocarcinoma T/C × 100: 181%
Acute toxicity
  LD50 at 504 h: 1580 mg/kg

From patent US4778797A, “Organo-silicon compounds, process for the manufacture of same, and anti-tumor agent comprising the compound” (Sanwa Kagaku Kenkyusho Co., Ltd., priority 1984, dated 1988)
